Molecular target: Protein arginine deiminase 4 (PAD4) (Homo sapiens, UniProt Q9UM07)
Experiment: PAD4 ammonia release assay
Assay type: biochemical
Settings: PAD4 ammonia release assay, BAEE substrate, 60 min at RT; read-out: Average IC50 Abs
Description: 1) Compound preparation: The compounds were diluted to 80× final concentrations. 2) The compounds were transferred to a 384-well assay plate by Tecan. DMSO: 1.25%. 3) Preparation of 1×Assay buffer: 100 mM HEPES, PH=8.0, 2 mM CaCl2, 50 mM NaCl, 0.1 mM TCEP, 0.6 mg/ml BSA. 4) 2× enzyme working solution (PAD4:20 nM) was prepared with assay buffer, and 10 μL of the obtained working solution were added to the 384-well assay plates. 5) The plate was centrifuged at 1000 rpm for 1 min. 6) After the centrifuge, the plate was incubated at RT for 15 min. 7) 2×BAEE substrate mix (600 μM) was prepared with assay buffer and 10 μL of the obtained substrate mix were added to each well. 8) The plate was centrifuged at 1000 rpm for 1 min and then incubated at RT for 60 min. 9) 1.5× detection mix (DTT:4 mM, OPA:3 mM, EDTA: 30 mM) was prepared, and 10 μL of the mix were added to the plate. 10) The plate was centrifuged at 1000 rpm for 1 min and then incubated at RT for 120 min. 11) The 384-well plates were placed into the Envision (PerkinElmer) and the assay data were collected.
The percent (%) inhibition at each concentration of compound was calculated based on and relative to the signal in the HPE (50 μM ref. compound) and ZPE (1.25% DMSO) wells included within each assay plate. The HPE worked as 100% inhibition, and the ZPE worked as 0% inhibition. The concentrations and % inhibition values for tested compounds were plotted and the concentration of compound required for 50% inhibition (IC50) was determined with a Four-parameter logistic dose response equation. The endpoint value (IC50) for the reference compound was evaluated in each experiment as a quality control measure. If the endpoint value is within 3-fold of the expected value, then the experiment quality is deemed as acceptable. The results are provided in Table 1 below. ≤0.1 μM=“++++”; >0.1 and ≤0.5 μM=“+++”; >0.5 and ≤5.0 μM=“++”; >5.0 μM=“+”. “−”=not available.

Chain of Protein arginine deiminase 4 (PAD4) (Q9UM07 whole entry): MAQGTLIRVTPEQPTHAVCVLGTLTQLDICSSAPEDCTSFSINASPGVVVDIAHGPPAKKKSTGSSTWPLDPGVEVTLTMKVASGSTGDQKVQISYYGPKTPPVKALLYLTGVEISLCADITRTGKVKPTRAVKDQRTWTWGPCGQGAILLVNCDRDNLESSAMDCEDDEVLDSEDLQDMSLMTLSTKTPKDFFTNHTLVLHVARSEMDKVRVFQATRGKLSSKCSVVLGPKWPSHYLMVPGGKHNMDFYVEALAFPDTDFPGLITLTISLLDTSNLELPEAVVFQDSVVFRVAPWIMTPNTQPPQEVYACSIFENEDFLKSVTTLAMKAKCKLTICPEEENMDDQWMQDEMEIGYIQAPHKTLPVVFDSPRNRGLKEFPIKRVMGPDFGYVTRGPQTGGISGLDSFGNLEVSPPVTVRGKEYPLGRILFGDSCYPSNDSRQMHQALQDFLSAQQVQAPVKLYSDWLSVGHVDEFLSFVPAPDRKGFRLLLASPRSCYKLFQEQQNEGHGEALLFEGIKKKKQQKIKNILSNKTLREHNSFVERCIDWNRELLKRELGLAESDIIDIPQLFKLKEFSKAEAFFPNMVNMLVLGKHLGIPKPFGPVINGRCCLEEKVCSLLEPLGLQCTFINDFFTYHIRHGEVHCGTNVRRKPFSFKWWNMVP

Row | SMILES | IC50
1 | CN1CCc2c(ccc3cc(-c4nc5cc(C(=O)N6C[C@H]7CC[C@@H]6[C@@H]7N)cc(F)c5n4C)n(CC4CC4)c23)C1 [Example 152, ((1R,4R,7R)-7-amino-2-azabicyclo[2.2.1]heptan-2-yl)(2-(1-(cyclopropylmethyl)-7-methyl-6,7,8,9-tetrahydro-1H-pyrrolo[2,3-f]isoquinolin-2-yl)-7-fluoro-1-methyl-1H-benzo[d]imidazol-5-yl)methanone] | 0.1 to 0.5 µM
2 | COc1cc(C(=O)N2C[C@H](N)C[C@@H](F)C2)cc2nc(-c3cc4cccc5c4n3CCN5C(=O)COC(C)=O)n(C)c12 [Example 29, 2-(5-(5-((3R,5R)-3-amino-5-fluoropiperidine-1-carbonyl)-7-methoxy-1-methyl-1H-benzo[d]imidazol-2-yl)-2,3-dihydro-1H-pyrrolo[1,2,3-de]quinoxalin-1-yl)-2-oxoethyl acetate)] | 0.5 to 5 µM
3 | COc1cc(C(=O)N2CC[C@@H](N)C2)cc2nc(-c3cc4cccc5c4n3CCN5CCCO)n(C)c12 [Example 15, (R)-(3-aminopyrrolidin-1-yl)(2-(1-(3-hydroxypropyl)-2,3-dihydro-1H-pyrrolo[1,2,3-de]quinoxalin-5-yl)-7-methoxy-1-methyl-1H-benzo[d]imidazol-5-yl)methanone] | > 5 µM
4 | COc1cc(C(=O)N2C[C@H](N)C[C@@H](F)C2)cc2nc(-c3cc4cccc5c4n3CCN5CCCNC(C)=O)n(C)c12 [Example 1, N-(3-(5-(5-((3R,5R)-3-amino-5-fluoropiperidine-1-carbonyl)-7-methoxy-1-methyl-1H-benzo[d]imidazol-82-yl)-2,3-dihydro-1H-pyrrolo[1,2,3-de]quinoxalin-1-yl)propyl)acetamide] | 0.5 to 5 µM
5 | COc1cc(C(=O)N2CCC[C@](C)(N)C2)cc2nc(-c3cc4cccc5c4n3CCN5CCCO)n(C)c12 [Example 19, (S)-(3-amino-3-methylpiperidin-1-yl)(2-(1-(3-hydroxypropyl)-2,3-dihydro-1H-pyrrolo[1,2,3-de]quinoxalin-5-yl)-7-methoxy-1-methyl-1H-benzo[d]imidazol-5-yl)methanone] | > 5 µM
6 | COc1cc(C(=O)N2CCC[C@@H](N)C2)cc2nc(-c3cc4cccc5c4n3CCN5CCCOC(=O)NC3CC3)n(C)c12 [Example 27, (R)-3-(5-(5-(3-aminopiperidine-1-carbonyl)-7-methoxy-1-methyl-1H-benzo[d]imidazol-2-yl)-2,3-dihydro-1H-pyrrolo[1,2,3-de]quinoxalin-1-yl)propyl cyclopropylcarbamate] | 0.5 to 5 µM
7 | Cn1c(-c2cc3ccc4c(c3n2CC2CC2)NCC[S+]4[O-])nc2cc(C(=O)N3C[C@H]4CC[C@@H]3[C@@H]4N)cc(F)c21 (stereo partly drawn) [Example 162, ((1R,4R,7R)-7-amino-2-azabicyclo[2.2.1]heptan-2-yl)(2-(9-(cyclopropylmethyl)-4-oxido-1,2,3,9-tetrahydro-[1,4]thiazino[2,3-g]indol-8-yl)-7-fluoro-1-methyl-1H-benzo[d]imidazol-5-yl)methanone] | 0.5 to 5 µM
8 | COc1cc(C(=O)N2CCC[C@@H](N)C2)cc2nc(-c3cc4cccc5c4n3CCN5C(=O)c3ccccc3)n(C)c12 [Example 31, (R)-(3-aminopiperidin-1-yl)(2-(1-benzoyl-2,3-dihydro-1H-pyrrolo[1,2,3-de]quinoxalin-5-yl)-7-methoxy-1-methyl-1H-benzo[d]imidazol-5-yl)methanone] | > 5 µM
9 | COc1cc(C(=O)N2CCC3(CC3N)C2)cc2nc(-c3cc4cccc5c4n3CCN5CCCO)n(CC3CC3)c12 (centres unmarked) [Example 52, (1-amino-5-azaspiro[2.4]heptan-5-yl)(1-(cyclopropylmethyl)-2-(1-(3-hydroxypropyl)-2,3-dihydro-1H-pyrrolo[1,2,3-de]quinoxalin-5-yl)-7-methoxy-1H-benzo[d]imidazol-5-yl)methanone] | > 5 µM
10 | Cn1c(-c2cc3ccn4c(=O)[nH]nc4c3n2CC2CC2)nc2cc(C(=O)N3C[C@H]4CC[C@@H]3[C@@H]4N)cc(F)c21 [Example 160, 8-(5-((1R,4R,7R)-7-amino-2-azabicyclo[2.2.1]heptane-2-carbonyl)-7-fluoro-1-methyl-1H-benzo[d]imidazol-2-yl)-9-(cyclopropylmethyl)-2,9-dihydro-3H-pyrrolo[2,3-c][1,2,4]triazolo[4,3-a]pyridin-3-one] | 0.5 to 5 µM
11 | Cn1c(-c2cc3ccc4c(c3n2CC2CC2)CCN(C2CC2)C4)nc2cc(C(=O)N3C[C@H]4CC[C@@H]3[C@@H]4N)cc(F)c21 [Example 155, ((1R,4R,7R)-7-amino-2-azabicyclo[2.2.1]heptan-2-yl)(2-(7-cyclopropyl-1-(cyclopropylmethyl)-6,7,8,9-tetrahydro-1H-pyrrolo[2,3-f]isoquinolin-2-yl)-7-fluoro-1-methyl-1H-benzo[d]imidazol-5-yl)methanone] | 0.1 to 0.5 µM
12 | CCC1CNc2c(C#N)ccc3cc(-c4nc5cc(C(=O)N6C[C@H]7CC[C@@H]6[C@@H]7N)cc(F)c5n4C)n1c23 (stereo partly drawn) [Example 128, 5-(5-((1R,4R,7R)-7-amino-2-azabicyclo[2.2.1]heptane-2-carbonyl)-7-fluoro-1-methyl-1H-benzo[d]imidazol-2-yl)-3-ethyl-2,3-dihydro-1H-pyrrolo[1,2,3-de]quinoxaline-9-carbonitrile] | 0.1 to 0.5 µM
13 | COc1cc(C(=O)N2C[C@H](N)C3(CC3)C2)cc2nc(-c3cc4cccc5c4n3CCN5CCCO)n(CC3CC3)c12 [Example 60, (R)-(7-amino-5-azaspiro[2.4]heptan-5-yl)(1-(cyclopropylmethyl)-2-(1-(3-hydroxypropyl)-2,3-dihydro-1H-pyrrolo[1,2,3-de]quinoxalin-5-yl)-7-methoxy-1H-benzo[d]imidazol-5-yl)methanone] | > 5 µM
14 | CCC1C(=O)Nc2cccc3cc(-c4nc5cc(C(=O)N6C[C@H]7CC[C@@H]6[C@@H]7N)cnn5c4C)n1c23 (stereo partly drawn) [Example 137, 2-[7-[(1R,4R,7R)-7-amino-2-azabicyclo[2.2.1]heptane-2-carbonyl]-3-methyl-imidazo[1,2-b]pyridazin-2-yl]-11-ethyl-1,9-diazatricyclo[6.3.1.04,12]dodeca-2,4,6,8(12)-tetraen-10-one] | 0.5 to 5 µM
15 | COc1cc(C(=O)N2C[C@H]3CC[C@@H]2[C@@H]3N)cc2nc(-c3cc4cccc5c4n3CCN5CCCO)n(Cc3cnn(C)c3)c12 [Example 45, ((1R,4R,7R)-7-amino-2-azabicyclo[2.2.1]heptan-2-yl)(2-(1-(3-hydroxypropyl)-2,3-dihydro-1H-pyrrolo[1,2,3-de]quinoxalin-5-yl)-7-methoxy-1-((1-methyl-1H-pyrazol-4-yl)methyl)-1H-benzo[d]imidazol-5-yl)methanone] | > 5 µM
16 | COc1cc(C(=O)N2CCC[C@@H](N)C2)cc2nc(-c3cc4cccc5c4n3CCN5C3CC(NC(C)=O)C3)n(C)c12 (stereo partly drawn) [Example 33, (R)—N-(3-(5-(5-(3-aminopiperidine-1-carbonyl)-7-methoxy-1-methyl-1H-benzo[d]imidazol-2-yl)-2,3-dihydro-1H-pyrrolo[1,2,3-de]quinoxalin-1-yl)cyclobutyl)acetamide] | 0.5 to 5 µM
17 | Cn1c(-c2cc3ccc4c(c3n2CC2CC2)NCC4(C)C)nc2cc(C(=O)N3C[C@H]4CC[C@@H]3[C@@H]4N)cc(F)c21 [Example 142, ((1R,4R,7R)-7-amino-2-azabicyclo[2.2.1]heptan-2-yl)(2-(1-(cyclopropylmethyl)-6,6-dimethyl-1,6,7,8-tetrahydropyrrolo[3,2-g]indol-2-yl)-7-fluoro-1-methyl-1H-benzo[d]imidazol-5-yl)methanone] | 0.5 to 5 µM
